According to paper PMC6891286, “Towards the Development of an In vivo Chemical Probe for Cyclin G Associated Kinase (GAK)” (Molecules, 2019):
Read-outs that look alike come from different tables or passages of the source.

Experiments:
GAK [1] = target: T1, GAK (Homo sapiens, UniProt O14976); experiment: live cell NanoBRET target engagement assay; format: cell-based; details: for IC50 values in cells: live cell NanoBRET assay; for IC50: nanoBRET, mean average, n = 2
T1 sequence (O14976 1-1311): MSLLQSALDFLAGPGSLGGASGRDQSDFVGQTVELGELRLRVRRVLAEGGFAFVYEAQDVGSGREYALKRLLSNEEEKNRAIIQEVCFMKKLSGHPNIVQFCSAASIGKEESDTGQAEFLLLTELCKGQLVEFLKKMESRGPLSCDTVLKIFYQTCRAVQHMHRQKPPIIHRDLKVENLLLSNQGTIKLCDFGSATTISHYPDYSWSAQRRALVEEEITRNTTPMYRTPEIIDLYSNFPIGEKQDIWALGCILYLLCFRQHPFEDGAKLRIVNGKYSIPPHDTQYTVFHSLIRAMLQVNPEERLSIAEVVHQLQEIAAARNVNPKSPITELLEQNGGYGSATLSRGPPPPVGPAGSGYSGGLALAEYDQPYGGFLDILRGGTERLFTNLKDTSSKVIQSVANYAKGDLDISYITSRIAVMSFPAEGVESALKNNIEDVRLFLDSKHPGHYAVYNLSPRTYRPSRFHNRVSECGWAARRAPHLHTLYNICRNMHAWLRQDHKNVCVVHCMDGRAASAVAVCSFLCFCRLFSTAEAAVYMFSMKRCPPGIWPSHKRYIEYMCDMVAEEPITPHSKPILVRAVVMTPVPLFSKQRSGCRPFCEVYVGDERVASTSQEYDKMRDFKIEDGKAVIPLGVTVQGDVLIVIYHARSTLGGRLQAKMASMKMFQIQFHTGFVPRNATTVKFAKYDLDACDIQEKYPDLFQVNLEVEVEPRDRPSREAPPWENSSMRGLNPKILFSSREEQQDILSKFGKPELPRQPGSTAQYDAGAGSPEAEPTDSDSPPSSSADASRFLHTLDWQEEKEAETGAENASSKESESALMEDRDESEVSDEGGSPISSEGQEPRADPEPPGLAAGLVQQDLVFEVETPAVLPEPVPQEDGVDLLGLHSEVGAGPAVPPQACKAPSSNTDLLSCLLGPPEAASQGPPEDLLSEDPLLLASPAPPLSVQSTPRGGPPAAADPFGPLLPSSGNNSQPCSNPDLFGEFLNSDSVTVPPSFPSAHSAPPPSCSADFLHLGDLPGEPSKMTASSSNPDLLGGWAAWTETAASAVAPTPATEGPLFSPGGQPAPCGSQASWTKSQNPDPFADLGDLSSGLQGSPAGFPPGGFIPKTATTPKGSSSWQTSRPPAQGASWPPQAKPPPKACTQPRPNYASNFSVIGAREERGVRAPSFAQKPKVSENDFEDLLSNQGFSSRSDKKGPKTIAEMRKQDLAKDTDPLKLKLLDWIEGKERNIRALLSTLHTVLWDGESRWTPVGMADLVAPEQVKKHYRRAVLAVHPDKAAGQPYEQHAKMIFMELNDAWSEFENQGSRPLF

Kinetic Solubility = format: physicochemical; details: pH 7.4, aqueous buffer, kinetic from dmso stock, PBS pH7.4 (100 µM)
[2] = mouse liver microsome metabolic stability; details: mouse liver microsomes; for T1/2 Ratio: normalization with respect to internal control (propranolol); for half-life: mouse, T1/2 (min), mouse liver microsomes with NADPH, mean average, n = 2
Protocol: SGC-GAK-1 (1) was incubated with MLMs in the presence or absence of added NADPH, and the compound was quantified at various time points over an hour.
The metabolic stability of the 4-anilinoquinolines (8–13) were evaluated in MLMs (Table 1). Half-lives for metabolic clearance were normalized to propranolol in each experimental run to control for variations in the MLM preparations.

STK16 = STK16 (Homo sapiens, UniProt O75716); experiment: NAK family TR-FRET binding displacement assay; details: NAK family FRET screening; read-out: Binding displacement assay STK16 Ki
STK16, sequence (O75716 whole entry): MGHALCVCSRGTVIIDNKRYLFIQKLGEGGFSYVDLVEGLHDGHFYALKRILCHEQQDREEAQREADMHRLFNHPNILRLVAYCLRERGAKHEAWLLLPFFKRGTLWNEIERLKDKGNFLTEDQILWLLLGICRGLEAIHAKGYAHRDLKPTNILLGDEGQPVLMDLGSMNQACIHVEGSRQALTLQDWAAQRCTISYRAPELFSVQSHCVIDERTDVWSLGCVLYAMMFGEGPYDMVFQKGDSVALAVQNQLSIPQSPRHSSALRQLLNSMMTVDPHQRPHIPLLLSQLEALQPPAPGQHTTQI

BMP2K = BMP2K (Homo sapiens, UniProt Q9NSY1); experiment: NAK family TR-FRET binding displacement assay
BMP2K, sequence (Q9NSY1 whole entry): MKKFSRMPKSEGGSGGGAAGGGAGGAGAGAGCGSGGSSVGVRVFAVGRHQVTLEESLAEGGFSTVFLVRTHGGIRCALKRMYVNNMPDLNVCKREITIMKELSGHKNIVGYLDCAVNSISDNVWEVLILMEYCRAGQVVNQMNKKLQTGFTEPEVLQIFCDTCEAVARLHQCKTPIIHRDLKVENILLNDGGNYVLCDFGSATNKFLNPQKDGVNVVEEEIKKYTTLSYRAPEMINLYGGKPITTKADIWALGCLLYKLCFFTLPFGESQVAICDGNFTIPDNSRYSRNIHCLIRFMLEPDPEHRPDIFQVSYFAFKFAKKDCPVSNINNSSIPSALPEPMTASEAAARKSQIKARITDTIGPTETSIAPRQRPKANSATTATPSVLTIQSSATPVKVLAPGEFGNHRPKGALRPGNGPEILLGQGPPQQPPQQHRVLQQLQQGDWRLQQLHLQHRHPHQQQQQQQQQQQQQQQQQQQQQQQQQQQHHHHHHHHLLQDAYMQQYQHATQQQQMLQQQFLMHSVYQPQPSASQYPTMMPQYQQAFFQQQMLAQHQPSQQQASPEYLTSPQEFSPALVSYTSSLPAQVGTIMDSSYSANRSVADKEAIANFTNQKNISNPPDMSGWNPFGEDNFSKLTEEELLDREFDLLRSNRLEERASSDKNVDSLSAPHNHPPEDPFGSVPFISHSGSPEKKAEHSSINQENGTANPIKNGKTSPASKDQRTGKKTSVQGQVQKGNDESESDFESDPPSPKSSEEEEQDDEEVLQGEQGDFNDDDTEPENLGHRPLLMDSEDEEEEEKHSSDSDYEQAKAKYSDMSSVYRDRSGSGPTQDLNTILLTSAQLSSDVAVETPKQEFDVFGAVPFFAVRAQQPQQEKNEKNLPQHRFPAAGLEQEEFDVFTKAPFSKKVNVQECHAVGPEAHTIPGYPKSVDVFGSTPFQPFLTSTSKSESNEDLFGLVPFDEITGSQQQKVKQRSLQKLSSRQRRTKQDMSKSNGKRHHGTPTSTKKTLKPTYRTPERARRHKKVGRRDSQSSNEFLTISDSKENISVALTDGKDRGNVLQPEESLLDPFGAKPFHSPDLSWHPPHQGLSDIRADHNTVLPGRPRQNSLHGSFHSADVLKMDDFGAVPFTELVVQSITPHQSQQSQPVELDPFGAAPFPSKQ

AAK1 = AAK1 (Homo sapiens, UniProt Q2M2I8); experiment: NAK family TR-FRET binding displacement assay; details: NAK family FRET screening
AAK1, sequence (Q2M2I8 whole entry): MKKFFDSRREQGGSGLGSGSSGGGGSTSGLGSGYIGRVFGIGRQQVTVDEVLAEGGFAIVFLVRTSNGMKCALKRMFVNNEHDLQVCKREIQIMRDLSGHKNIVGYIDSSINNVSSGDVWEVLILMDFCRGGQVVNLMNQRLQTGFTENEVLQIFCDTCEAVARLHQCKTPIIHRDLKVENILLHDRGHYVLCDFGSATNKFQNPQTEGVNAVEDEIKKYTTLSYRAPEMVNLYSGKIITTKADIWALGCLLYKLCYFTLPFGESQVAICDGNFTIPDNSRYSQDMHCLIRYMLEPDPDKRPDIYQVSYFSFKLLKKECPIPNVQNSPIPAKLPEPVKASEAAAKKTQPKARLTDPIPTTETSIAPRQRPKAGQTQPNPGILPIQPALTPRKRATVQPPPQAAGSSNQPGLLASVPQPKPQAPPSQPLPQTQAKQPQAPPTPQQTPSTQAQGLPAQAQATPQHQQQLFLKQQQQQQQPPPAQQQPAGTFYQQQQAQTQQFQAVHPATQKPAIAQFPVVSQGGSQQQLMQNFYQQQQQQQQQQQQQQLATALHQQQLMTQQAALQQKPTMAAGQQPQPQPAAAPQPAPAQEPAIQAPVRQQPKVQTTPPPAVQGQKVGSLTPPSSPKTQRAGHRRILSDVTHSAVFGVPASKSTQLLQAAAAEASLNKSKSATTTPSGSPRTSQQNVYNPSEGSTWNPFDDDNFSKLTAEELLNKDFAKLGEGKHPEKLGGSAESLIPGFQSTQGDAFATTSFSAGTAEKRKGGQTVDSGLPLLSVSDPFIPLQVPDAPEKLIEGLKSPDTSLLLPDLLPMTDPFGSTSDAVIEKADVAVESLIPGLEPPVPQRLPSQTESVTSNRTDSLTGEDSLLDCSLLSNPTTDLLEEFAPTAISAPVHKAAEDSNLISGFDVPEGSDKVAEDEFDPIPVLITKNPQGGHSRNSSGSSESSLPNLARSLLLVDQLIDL

GAK [3] = target: T1, GAK; experiment: TR-FRET ligand-binding displacement assay
[4] = read-out: Kinetic Solubility µM
[5] = read-out: Kinetic Solubility µg/mL
[6] = NAK family FRET screening, read-out: Binding displacement assay GAK Ki
[7] = TR-FRET assay, read-out: Biochemical GAK Ki

Compound | IC50 values in cells (GAK [1]) | IC50 (GAK [1]) | solubility kinetic (Kinetic Solubility; [4]) | solubility kinetic (Kinetic Solubility; [5]) | T1/2 Ratio [2] | half-life [2] | Ki (STK16) | Ki (BMP2K) | Ki (AAK1) | Ki (GAK [3]; [6]) | Ki (GAK [3]; [7]) | T1/2 ratios fold higher than 9 [2]
Brc1ccc2nccc(Nc3cccc4ncoc34)c2c1 [Compound 23, N-(6-Bromoquinolin-4-yl)benzo[d]oxazol-7-amine] | submicromolar | 0.34 µM | 25.9 µM | 8.8 µg/mL | 0.21 | 1.7 min | > 100 µM | > 100 µM | > 100 µM | 0.011 µM | – | –
O=C1NCc2ccc(Nc3ccnc4ccc(Br)cc34)cc21 [Compound 38, 6-[(6-Bromoquinolin-4-yl)amino]-2,3-dihydro-1H-isoindol-1-one] | – | > 5 µM | – | – | 1.0 | 8.1 min | 2.7 µM | 0.98 µM | 1.4 µM | – | 0.062 µM | –
FC1(F)Oc2cccc(Nc3ccnc4ccc(Br)cc34)c2O1 [Compound 16, 6-Bromo-N-(2,2-difluorobenzo[d][1,3]dioxol-4-yl)quinolin-4-amine] | – | > 5 µM | – | – | 0.24 | 2 min | > 100 µM | > 100 µM | > 100 µM | – | 0.46 µM | –
COc1cccc(Nc2ccnc3ccc(Br)cc23)c1OC [Compound 15, 6-Bromo-N-(2,3-dimethoxyphenyl)quinolin-4-amine] | – | > 5 µM | – | – | 0.12 | 1 min | > 100 µM | 8.7 µM | 3.3 µM | – | 0.74 µM | –
Fc1c(F)c(F)c(Nc2ccnc3ccc(C(F)(F)F)cc23)c(F)c1F [Compound 12] | – | – | – | – | 7.0 | 45.6 min | 19 µM | > 100 µM | > 100 µM | – | 0.88 µM | –
Brc1ccc2nccc(Nc3cccc4occc34)c2c1 [Compound 19, N-(Benzofuran-4-yl)-6-bromoquinolin-4-amine] | submicromolar | 0.18 µM | – | – | 0.16 | 1.7 min | > 100 µM | 11 µM | 1.9 µM | – | 0.0019 µM | –
O=c1[nH]c2ccc(Nc3ccnc4ccc(Br)cc34)cc2[nH]1 [Compound 39, 5-[(6-Bromoquinolin-4-yl)amino]-2,3-dihydro-1H-1,3-benzodiazol-2-one] | – | > 5 µM | – | – | >25 | > 200 min | 21 µM | 22 µM | 1.9 µM | – | 0.36 µM | ≥ 2 fold
Brc1ccc2nccc(Nc3cccc4nc[nH]c34)c2c1 [Compound 27, N-(1H-Benzo[d]imidazol-7-yl)-6-bromoquinolin-4-amine] | – | > 5 µM | – | – | 1.0 | 8.1 min | 26 µM | 2.3 µM | 1.3 µM | 0.066 µM | – | –
Brc1ccc2nccc(Nc3cccc4c3CCO4)c2c1 [Compound 17, 6-Bromo-N-(2,3-dihydrobenzofuran-4-yl)quinolin-4-amine] | – | > 5 µM | – | – | 0.16 | 1.7 min | > 100 µM | > 100 µM | > 100 µM | – | 0.0052 µM | –
Fc1cc2cn[nH]c2cc1Nc1ccnc2ccc(Br)cc12 [Compound 36, 6-Bromo-N-(5-fluoro-1H-indazol-6-yl)quinolin-4-amine] | – | > 5 µM | 2 µM | 0.7 µg/mL | 2.2 | 14.8 min | – | – | – | – | – | –
Cn1c(=O)[nH]c2cc(Nc3ccnc4ccc(Br)cc34)ccc21 [Compound 42, 5-[(6-Bromoquinolin-4-yl)amino]-1-methyl-2,3-dihydro-1H-1,3-benzodiazol-2-one] | – | > 5 µM | – | – | 4.2 | 33.6 min | 9.3 µM | 6.6 µM | 4.1 µM | – | 1.6 µM | ≥ 2 fold
Cn1ncc2c(Nc3ccnc4ccc(Br)cc34)cccc21 [Compound 31, 6-Bromo-N-(1-methyl-1H-indazol-4-yl)quinolin-4-amine] | – | > 5 µM | – | – | 0.10 | 0.8 min | 28 µM | 16 µM | 13 µM | 3.6 µM | – | –
Brc1ccc2nccc(Nc3cccc4nonc34)c2c1 [Compound 28, N-(6-Bromoquinolin-4-yl)benzo[c][1,2,5]oxadiazol-4-amine] | – | 2.5 µM | – | – | 0.15 | 1.2 min | 11 µM | 13 µM | 4.6 µM | – | 0.041 µM | –
Cn1nnc2c(Nc3ccnc4ccc(Br)cc34)cccc21 [Compound 30, 6-Bromo-N-(1-methyl-1H-benzo[d][1,2,3]triazol-4-yl)quinolin-4-amine] | – | > 5 µM | – | – | 0.09 | 0.73 min | > 100 µM | 20 µM | 8.7 µM | 2.8 µM | – | –
Brc1ccc2nccc(Nc3cccc4sccc34)c2c1 [Compound 26, N-(Benzo[b]thiophen-4-yl)-6-bromoquinolin-4-amine] | – | 3.3 µM | – | – | 0.50 | 4.1 min | > 100 µM | > 100 µM | > 100 µM | – | 0.023 µM | –
Brc1ccc2nccc(Nc3cccc4ccoc34)c2c1 [Compound 20, N-(Benzofuran-7-yl)-6-bromoquinolin-4-amine] | submicromolar | 0.57 µM | – | – | 0.08 | 0.9 min | > 100 µM | 16 µM | 4.6 µM | – | 0.0043 µM | –
O=c1[nH]c2cc(Nc3ccnc4ccc(Br)cc34)ccc2o1 [Compound 41, 5-[(6-Bromoquinolin-4-yl)amino]-2,3-dihydro-1,3-benzoxazol-2-one] | – | > 5 µM | – | – | 3.4 | 27.8 min | > 100 µM | 79 µM | 37 µM | – | 0.11 µM | ≥ 2 fold
O=S1(=O)Cc2ccc(Nc3ccnc4ccc(Br)cc34)cc2C1 [Compound 43, 5-((6-Bromoquinolin-4-yl)amino)-1,3-dihydrobenzo[c]thiophene 2,2-dioxide] | – | > 5 µM | – | – | 1.9 | 15.6 min | 8 µM | 6.4 µM | 3.3 µM | – | 1.7 µM | –
O=c1[nH]c2ccc(Nc3ccnc4ccc(Br)cc34)cc2o1 [Compound 40, 6-[(6-Bromoquinolin-4-yl)amino]-2,3-dihydro-1,3-benzoxazol-2-one] | – | > 5 µM | – | – | 6.9 | 55.9 min | 8.8 µM | 4.9 µM | 2.4 µM | – | 0.68 µM | ≥ 2 fold
Brc1ccc2nccc(Nc3cccc4c3OCC4)c2c1 [Compound 18, 6-Bromo-N-(2,3-dihydrobenzofuran-7-yl)quinolin-4-amine] | – | 2.5 µM | – | – | 0.10 | 0.82 min | > 100 µM | 11 µM | 3.5 µM | – | 0.029 µM | –
